Test results published in US20080090254A1, “Method for assessing proliferation inhibiting effect of inhibitor, and method for determining sensitivity of tumor cell to inhibitor” (SYSMEX CORPORATION, priority 2006, published 2008).

What was measured:
[1] = test system: receptor tyrosine kinase group derived from a cell membrane of MDA-MB468; assay: activity of receptor tyrosine kinase group, sample for reaction MB468 (ELISA, GST-poly(Glu, Tyr) substrate); assay type: biochemical; conditions: for effect of inhibiting the activity of a receptor tyrosine kinase group, inhibitor combined with 4557W: Example 2, FIG. 6, 400 μM inhibitor combined with 400 μM 4557W; for effect of inhibiting the activity of a receptor tyrosine kinase group, inhibitor alone: Example 2, FIG. 6, treating solution containing 400 μM inhibitor alone; for inhibition of the activity of the receptor tyrosine kinase group: Example 1, FIG. 3, treating solution containing 400 μM inhibitor, versus sample not treated = 100%
Method: (§1) From five kinds of cultured cells (MDA-MB453, MDA-MB468, SKBr3, Hela and HT29), a sample for reaction was prepared. Specifically, the cultured cell and 1 ml of a cell treating solution (containing 20 mM HEPES pH7.4, 0.2% PI, 10% glycerol, 200 μM Na3VO4, and 50 mM NaF) were mixed. By pressing using a pestle, a cell membrane of the resulting mixed solution was destructed to prepare a cell solution. The resulting cell solution was centrifuged, a supernatant was discarded, and a precipitate was recovered. The recovered precipitate and a cell membrane solubilizing solution (containing 20 mM HEPES pH7.4, 1% NP40, 0.2% PI, 10% glycerol, 200 μM Na3VO4, and 50 mM NaF) were mixed. A cell membrane in the mixed solution obtained by pressing using a pestle was solubilized, and centrifuged to recover a supernatant. This supernatant was used as a sample for reaction. MDA-MB453 is a cultured cell derived from a breast cancer, and a sample for reaction prepared from this cell is designated as sample for reaction MB453. MDA-MB468 is a cultured cell derived from a breast cancer, and a sample for reaction prepared from this cell is designated as sample for reaction MB468. SKBr3 is a cultured cell derived from a breast cancer, and a sample for reaction prepared from this cell is designated as sample for reaction SKBr3. Hela is a cultured cell derived from a uterine cervical cancer, and a sample for reaction prepared from this cell is designated sample for reaction Hela. HT29 is a cultured cell derived from a large intestine cancer, and a sample for reaction prepared from this cell is designated sample for reaction HT29.
As a plate for ELISA, a glutathione-coated plate (Reacti-Bind Clear Glutathione Coated Plates, 8-well Strip (PIERCE)) was used. First, each well of the plate was washed with TBS-T (containing 25 mM Tris, 150 mM NaCl and 0.05% Tween 20) three times. Then, into each well was placed 50 μl of the substrate solution 1 containing the GST-poly (Glu, Tyr) substrate prepared in the 1 (TBS containing 5 μg/ml GST-poly (Glu, Tyr) substrate), and this was incubated at 25° C. for 1 hour while slightly shaken. After incubation, each well was washed with TBS-T two times. Further, each well was washed with 20 mM HEPES pH7.4 (containing 0.05% Tween 20) once. Like this, the GST-poly (Glu, Tyr) substrate was bound to a surface of a well of the plate for ELISA. This plate for ELISA was used in the following enzyme reaction.
First, 25 μl of the sample for reaction MB453 was dispensed into 6 tubes, respectively. Among 6 tubes, to the first tube was added 25 μl of a treating solution containing 400 μM (20 mM HEPES pH7.4, 20 mM MnCl2, 2 mM DTT, 1% NP40, 10% glycerol, 200 μM Na3VO4, 50 mM NaF, 400 μM ATP). To the second tube was added 25 μl of a treating solution containing 400 μM AG1478. To the third tube was added 25 μl of a treating solution containing 400 μM 4557W. To the fourth tube was added 25 μl of a treating solution containing 400 μM PDGF Receptor Tyrosine Kinase Inhibitor III. To the fifth tube was added 25 μl of a treating solution containing 400 μM VEGF Receptor Tyrosine Kinase Inhibitor III. To the sixth tube was added 25 μl of a treating solution containing no inhibitor. The thus obtained solutions are used as a reaction solution. Similarly, using the sample for reaction MB468, the sample for reaction SKBr3, the sample for reaction Hela and the sample for reaction HT29, samples for reaction were prepared. In order to suppress the enzyme activity of receptor tyrosine kinase, this working was performed under the condition of not higher than 4° C.
Fifty microliter of each reaction solution was placed into separate wells of the plate for ELISA, and this was incubated at 25° C. for about 30 minutes. After incubation, 100 μl of a reaction stopping solution (TBS-T containing 1 mM EDTA) was added to each well, followed by further washing with TBS-T three times. Then, each well was washed with 300 μl of StartingBlock T20 (TBS) Blocking Buffer (PIERCE). […]

[2] = test system: receptor tyrosine kinase group derived from a cell membrane of HT29; assay: activity of receptor tyrosine kinase group, sample for reaction HT29 (ELISA, GST-poly(Glu, Tyr) substrate); assay type: biochemical; conditions: Example 1, FIG. 3, treating solution containing 400 μM inhibitor, versus sample not treated = 100%
Method: as §1, with “Hela is a cultured cell derived from a uterine cervical cancer, and a sample for reaction prepared from this cell is designated sample for reaction Hela. HT29 is a cultured cell derived from a large intestine cancer, and a sample for reaction prepared from this cell is designated sample for reaction HT29.” left out

SKBr3 = assay: cell proliferation, CellTiter-Glo Luminescent Cell Viability Assay; assay type: cell-based; conditions: Comparative Example 1, FIG. 4, final concentration 1 × 10^−5 M (Table 1), cultured 3 days
Method: (§2) Cells were seeded on each well of a plate for culturing (96 Well Solid White Flat Bottom Polystyrene TC-Treated Microplates, Corning) at 1000 cells per well, and cultured at 37° C. for 24 hours. After culturing, an inhibitor was added to each well, and cells were further cultured at 37° C. for 3 days. As cells, five kinds of cultured cells used in Example 1 (MDA-MB453, MDA-MB468, SKBr3, Hela and HT29) were used. As the inhibitor, five kinds of inhibitors used in Example 1 (PD153035, AG1478, 4557W, PDGF Receptor Tyrosine Kinase Inhibitor III and VEGF Receptor Tyrosine Kinase Inhibitor III) were used. In Table 1, the final concentration is a concentration when the inhibitor is added to a well, and is mixed with cells.
(§3) For measuring cell proliferation, CellTiter-Glo Luminescent Cell Viability Assay (Promega) was used. This is a reagent kit which can quantitate ATP derived from a cell having the metabolism activity in a medium to measure a viable cell. First, according to a protocol attached to the kit, a measurement reagent was prepared. The measurement reagent was added at 100 μl per well, and a culturing plate was stirred with a shaker for 2 minutes. After stirring, the plate was allowed to stand for 10 minutes, and […] was measured using GENios (TECAN). Since […] is generated in proportion with an amount of ATP derived from a cell having the metabolism activity in a medium, a viable cell in a medium can be measured by measuring […].
(§4) Based on the measurement result, radar charts of FIG. 4 were produced. FIG. 4 contains a radar chart in the case of use of MDA-MB453, a radar chart in the case of use of MDA-MB468, a radar chart in the case of use of SKBr3, a radar chart in the case of use of Hela, and a radar chart in the case of use of HT29. These radar charts show a proportion of a measured value obtained by treating a cell with an inhibitor, letting a measured value when a cell was not treated with an inhibitor to be 100%. In radar charts, 1 is the case where a cell was treated with PD153035, 2 is the case where a cell was treated with AG1478, 3 is the case where a cell was treated with 4557W, 4 is the case where a cell was treated with PDGF Receptor Tyrosine Kinase Inhibitor III, and 5 is the case where a cell was treated with VEGF Receptor Tyrosine Kinase Inhibitor III.

MDA-MB453 = assay: as above; assay type: cell-based; conditions: Comparative Example 1, FIG. 4, final concentration 1 × 10^−5 M (Table 1), cultured 3 days
Method: as §2, §3, §4

HT29 = assay: as above; assay type: cell-based; conditions: Comparative Example 1, FIG. 4, final concentration 1 × 10^−5 M (Table 1), cultured 3 days
Method: as §2, §3, §4

MDA-MB468 = assay: as above; assay type: cell-based; conditions: cultured 3 days
Method: as §2, §3, §4

MDA-MB468 tumor = assay: proliferation of tumor cell in a mouse body (tumor volume); assay type: in vivo; conditions: Comparative Example 2, FIG. 5; BALB/c nu/nu mouse with MDA-MB468 tumor; 30 mg/kg/day injected for 7 days; compared with DMSO
Method: MDA-MB468 used in Example 1 was cultured in a culturing solution (DMEM-F12 (Sigma) containing 10% FBS (Hyclone)) so that it became 60% confluent in a 225 cm^2 flask. The resulting cultured cells were suspended to about 1×10^7 in 100 μl of DMEM-F12, to prepare a MDA-MB468 cell solution.
A fat pad of a 10-week old female mouse (BALB/c nu/nu) was injected with 100 μl of the MDA-MB468 cell solution. After 14 days, it was confirmed that a tumor became large in a mouse body. Like this, a tumor was formed in three mice bodies.
Fourteen days after injection with the MDA-MB468 cell solution, a mouse in which a tumor had been generated was injected with an inhibitor solution. Specifically, AG1478 used in Example 1 was dissolved in 100 μl of dimethyl sulfoxide (DMSO, Sigma) to prepare an inhibitor solution 1. And, the inhibitor solution 1 was injected into a mouse to a dose of the inhibitor of 30 mg/kg/day. […]
The day when the mouse was first injected with an inhibitor solution was regarded as the first day after injection. And, on the first day, the third day, the fifth day, and the eighth day after injection, a volume of a tumor in a mouse body was measured. As a volume of a tumor, a long diameter and a short diameter of a tumor were measured, and a volume was calculated from a long diameter and a short diameter on the assumption that a shape of a tumor was an elliptic sphere.

[3] = test system: receptor tyrosine kinase group derived from a cell membrane of SKBr3; assay: activity of receptor tyrosine kinase group, sample for reaction SKBr3 (ELISA, GST-poly(Glu, Tyr) substrate); assay type: biochemical; conditions: Example 1, FIG. 3, treating solution containing 400 μM inhibitor, versus sample not treated = 100%
Method: as §1, with “Hela is a cultured cell derived from a uterine cervical cancer, and a sample for reaction prepared from this cell is designated sample for reaction Hela. HT29 is a cultured cell derived from a large intestine cancer, and a sample for reaction prepared from this cell is designated sample for reaction HT29.” left out

[4] = test system: receptor tyrosine kinase group derived from a cell membrane of MDA-MB453; assay: activity of receptor tyrosine kinase group, sample for reaction MB453 (ELISA, GST-poly(Glu, Tyr) substrate); assay type: biochemical; conditions: Example 1, FIG. 3, treating solution containing 400 μM inhibitor, versus sample not treated = 100%
Method: as §1, with “Hela is a cultured cell derived from a uterine cervical cancer, and a sample for reaction prepared from this cell is designated sample for reaction Hela. HT29 is a cultured cell derived from a large intestine cancer, and a sample for reaction prepared from this cell is designated sample for reaction HT29.” left out

[5] = Comparative Example 1, FIG. 4, final concentration 1 × 10^−6 M (Table 1)

| SMILES | effect of inhibiting the activity of a receptor tyrosine kinase group, inhibitor combined with 4557W [1] | effect of inhibiting the activity of a receptor tyrosine kinase group, inhibitor alone [1] | inhibition of proliferation of a tumor cell in a mouse body (change in volume of tumor) (MDA-MB468 tumor) | inhibition of the activity of the receptor tyrosine kinase group [1] | inhibition of proliferation (MDA-MB468; [5]) | also measured |
| --- | --- | --- | --- | --- | --- | --- |
| COc1cc2ncnc(N3CCN(C(=O)Nc4ccc(Oc5ccccc5)cc4)CC3)c2cc1OC | high activity inhibiting effect | little effect |  |  |  |  |
| CCCNC(=O)Nc1ccc(Oc2ncnc3cc(OC)c(OC)cc23)cc1Cl | high activity inhibiting effect | little effect |  |  |  |  |
| COc1cc2ncnc(Nc3ccc(OCc4ccccc4)cc3)c2cc1OC [4557W] |  | highest activity inhibiting effect | recognized | inhibited |  | inhibition of the activity of the receptor tyrosine kinase group [2]: inhibited; inhibition of proliferation (SKBr3): recognized; inhibition of proliferation (MDA-MB453): recognized; inhibition of proliferation (HT29): recognized; inhibition of proliferation (MDA-MB468; Comparative Example 1, FIG. 4, final concentration 1 × 10^−5 M (Table 1)): recognized; inhibition of the activity of the receptor tyrosine kinase group [3]: inhibited; inhibition of the activity of the receptor tyrosine kinase group [4]: inhibited |
| COc1cc2ncnc(Nc3cccc(Cl)c3)c2cc1OC [AG1478] |  |  | recognized | inhibited | recognized |  |
| COc1cc2ncnc(Nc3cccc(Br)c3)c2cc1OC [PD153035] |  |  |  | inhibited | recognized |  |
